“Also recorded” adds a separate entry of the source.
Experiments:
Stenoma catenifer [1] = conditions: Stenoma catenifer males; Millar et al. 2008, Hoddle et al. 2009; cited from earlier work
Stenoma catenifer [2] = experiment: field trap evaluation of sustained release preparations (white adhesive trap); assay type: in vivo; conditions: field traps, versus (9Z)-9,13-tetradecadien-11-ynal (1) alone
Text: A white adhesive trap was used for evaluation of the sustained release preparation. […] An adhesive substance is placed to the upper surface of the bottom plate, and the sustained release preparation A is directly mounted on the adhesive surface for use. In other words, the white adhesive trap has the structure in which only insect pests that come close to the sustained release preparation are captured, and the capture of untargeted insect pests are avoided as much as possible.
In the period of from September 23 and Nov. 25, 2019, the traps containing the respective sustained release preparations were installed in the orchards in which Stenoma catenifer lived. Adult male insect pests captured and killed in each trap were counted every 7 days. The control effect was evaluated by determining the relative value of the number of the insect pests captured by the sustained release preparation of Example 1 when regarding the total number of insect pests captured by the sustained release preparation of later-described Example 2 as 100.

[3] = test system: tomato fruit borer (Neoleucinodes elegantalis); conditions: added to sex pheromone main component (11E)-11-hexadecenol; Cabrera, J. Chem. Ecol. 2001; cited from earlier work

SMILES | effect on attraction number in field attraction tests (Stenoma catenifer [1]) | other results
CCCCC/C=C\C/C=C\CCCCCCCCCCCCC [(6Z,9Z)-6,9-tricosadiene] | did not affect the attraction number | 
C=CC#C/C=C/CCCCCCCC=O [(9E)-9,13-tetradecadien-11-ynal] |  | number of male adult insect pests captured compared with the comparative attractant (Stenoma catenifer [2]): increase in the total number of the captured insect pests
C=CC#C/C=C\CCCCCCCCO [(9Z)-9,13-tetradecadien-11-yn-1-ol] | reduced the attraction number; also recorded: attraction inhibitor | 
C=CC#C/C=C\CCCCCCCC=O [(9Z)-9,13-tetradecadien-11-ynal] | highest activity among the many attractant compositions; also recorded: attracted Stenoma catenifer | 
CCCC/C=C\CCCCCCCCCCO [(11Z)-11-hexadecenol] |  | effect of addition on attracted number [3]: greatly reduce the attracted number
